For the series, the system named is CYP3A. The class given is in vitro ADME, human. To be noted: HLM. An excerpt: Compound 5 (PTG-630 free base) and 7 additional compounds for CYP3A P450 inhibition.
Imidazole (and benzimidazole) containing drugs are ubiquitous in pharmacological practice; however, drug-drug interactions (DDI) have been observed with some imidazole-containing classes, such as the antifungal azoles typified by ketoconazole. It is believed that the imidazole moiety accounts for their ability to inhibit CYP3A, the major DDI enzyme that metabolizes up to 50% of common drugs. The compounds of the disclosure incorporate an imidazole moiety attached to a pyridine ring via the imidazole C-2. They all share an imidazo-hydroxypyridine theme that can bind redox metal ions, while differing in the nature of the X side-chain. The potential of the compounds of the disclosure for DDI was evaluated by screening their inhibition of CYP3A.
Two studies were conducted in human liver microsomes (HLM). Lead candidate PTG-630 was tested using the Eurofins G232 panel (Drug Metab Dispos. 2001 January; 29(1):23-9), where inhibition was measured against seven CYP enzymes; CYP3A4 was tested using two different substrates, midazolam and testosterone. In a second study, inhibition of CYP3A4 (midazolam substrate only) was compared for 8 compounds of interest. The test protocol involved one-point measurements in duplicate, where inhibition was measured at a fixed 10 μM concentration of candidate inhibitors. In all cases, the substrate for each CYP enzyme was at a concentration equal to its specific Km value that was independently obtained from an 8-point dose-response study. Based on the observed value for percent inhibition for each test compound, we calculated of an IC50 assuming a competitive mode of inhibition. If percent inhibition for an inhibitor at a concentration of [I] is denoted by P, then: IC50=[I]*(100−P)/P In the single-point assay, [I] is 10 μM. If measured inhibition is 10%, then IC50=10*(100-10)/10=90 μM. […] As discussed in Lin et al. (J Pharm Sci. 2007 September; 96(9):2485-93; doi: 10.1002/jps.20884), CYP inhibition is broadly interpreted as being “potent” if IC50<1 μM, “moderate” if 1 μM<IC50<10 μM, and “weak” if IC50>10 μM.

Molecules are shown by their SMILES.

Turning to `Cc1ncc(CN2CCCCCC2)c(-c2ncc[nH]2)c1O` [PTG-670], the “Estimated IC50” value (midazolam, from one-point % inhibition at 10 μM, IC50=[I]*(100−P)/P) is given as “— None”. Also, for the setting “substrate midazolam at Km, Inhib Conc. 1.0E−05 M”, the P % inhib is −1.1%.

The record behind these values is US12139472B2, “Inhibitors of advanced glycation end products” (priority 2019, dated 2024).
